For experiment [1], the target named is cAMP-dependent protein kinase catalytic subunit alpha (Homo sapiens, UniProt P17612). The experiment can be described thus: Selectivity interaction (Enzyme panel (AstraZeneca, AlphaScreen, functional assay)) EUB0000621a PRKACA. (In general: Alpha assays give light when donor and acceptor beads are brought close together.)
In experiment [2] the target is T1, Dual specificity mitogen-activated protein kinase kinase 7 (Homo sapiens) (UniProt O14733).
T1 sequence (whole entry): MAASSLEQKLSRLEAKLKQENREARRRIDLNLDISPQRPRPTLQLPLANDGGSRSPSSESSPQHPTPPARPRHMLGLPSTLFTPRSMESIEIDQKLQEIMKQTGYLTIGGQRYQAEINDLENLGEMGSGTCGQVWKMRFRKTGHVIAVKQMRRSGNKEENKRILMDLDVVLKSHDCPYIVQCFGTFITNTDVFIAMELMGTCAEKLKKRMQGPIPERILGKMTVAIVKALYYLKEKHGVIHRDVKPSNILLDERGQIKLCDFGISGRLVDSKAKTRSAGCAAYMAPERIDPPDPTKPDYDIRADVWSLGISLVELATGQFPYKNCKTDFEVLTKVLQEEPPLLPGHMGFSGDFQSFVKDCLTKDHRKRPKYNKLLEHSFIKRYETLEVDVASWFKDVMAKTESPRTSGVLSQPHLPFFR
Conditions: at 10 µM.

The target in experiment [3] is Histamine H1 receptor (Homo sapiens, UniProt P35367). Put plainly: Selectivity interaction (GPCR panel (PDSP screen)) EUB0001079a HRH1. The conditions noted are these: at 10 µM.
In experiment [4] the target is Mitogen-activated protein kinase kinase kinase kinase 5 (Homo sapiens) (UniProt Q9Y4K4). Put plainly: Selectivity interaction (KinomeScan (DiscoverX)) EUB0001079a MAP4K5. Conditions: at 1 µM.
The target of experiment [5] is T2, Mitogen-activated protein kinase kinase kinase 2 (Homo sapiens) (UniProt Q9Y2U5).
T2 sequence (whole entry): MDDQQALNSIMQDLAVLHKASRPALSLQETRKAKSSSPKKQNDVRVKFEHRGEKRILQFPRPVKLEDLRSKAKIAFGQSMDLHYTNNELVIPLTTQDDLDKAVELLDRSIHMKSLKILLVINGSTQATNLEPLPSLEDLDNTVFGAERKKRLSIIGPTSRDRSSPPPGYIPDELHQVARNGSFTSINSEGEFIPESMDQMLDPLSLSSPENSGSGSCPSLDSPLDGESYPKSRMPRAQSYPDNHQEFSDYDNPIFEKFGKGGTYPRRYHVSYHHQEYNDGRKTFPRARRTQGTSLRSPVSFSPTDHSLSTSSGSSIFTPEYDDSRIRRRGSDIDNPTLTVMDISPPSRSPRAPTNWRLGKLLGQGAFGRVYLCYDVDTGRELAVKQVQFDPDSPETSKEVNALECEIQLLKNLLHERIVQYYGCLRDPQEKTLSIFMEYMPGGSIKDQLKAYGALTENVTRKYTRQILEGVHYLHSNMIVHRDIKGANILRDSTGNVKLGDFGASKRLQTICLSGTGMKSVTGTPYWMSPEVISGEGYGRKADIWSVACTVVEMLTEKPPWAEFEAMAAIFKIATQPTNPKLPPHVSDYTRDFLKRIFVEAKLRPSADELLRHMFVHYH
Put plainly: Selectivity interaction (KinomeScan (DiscoverX)) EUB0001079a MAP3K2. Conditions: at 1 µM.

The target of experiment [6] is Mitogen-activated protein kinase kinase kinase 9 (Homo sapiens) (UniProt P80192). Put plainly: Selectivity interaction (KinomeScan (DiscoverX)) EUB0001079a MAP3K9. The conditions noted are these: at 1 µM.
In experiment [7] the target is Mast/stem cell growth factor receptor Kit (Homo sapiens, UniProt P10721). Put plainly: Selectivity interaction (KinomeScan (DiscoverX)) EUB0001049a KIT. The conditions noted are these: at 1 µM.
The target of experiment [8] is T3, Serine/threonine-protein kinase LATS1 (Homo sapiens) (UniProt O95835).
T3 sequence (whole entry): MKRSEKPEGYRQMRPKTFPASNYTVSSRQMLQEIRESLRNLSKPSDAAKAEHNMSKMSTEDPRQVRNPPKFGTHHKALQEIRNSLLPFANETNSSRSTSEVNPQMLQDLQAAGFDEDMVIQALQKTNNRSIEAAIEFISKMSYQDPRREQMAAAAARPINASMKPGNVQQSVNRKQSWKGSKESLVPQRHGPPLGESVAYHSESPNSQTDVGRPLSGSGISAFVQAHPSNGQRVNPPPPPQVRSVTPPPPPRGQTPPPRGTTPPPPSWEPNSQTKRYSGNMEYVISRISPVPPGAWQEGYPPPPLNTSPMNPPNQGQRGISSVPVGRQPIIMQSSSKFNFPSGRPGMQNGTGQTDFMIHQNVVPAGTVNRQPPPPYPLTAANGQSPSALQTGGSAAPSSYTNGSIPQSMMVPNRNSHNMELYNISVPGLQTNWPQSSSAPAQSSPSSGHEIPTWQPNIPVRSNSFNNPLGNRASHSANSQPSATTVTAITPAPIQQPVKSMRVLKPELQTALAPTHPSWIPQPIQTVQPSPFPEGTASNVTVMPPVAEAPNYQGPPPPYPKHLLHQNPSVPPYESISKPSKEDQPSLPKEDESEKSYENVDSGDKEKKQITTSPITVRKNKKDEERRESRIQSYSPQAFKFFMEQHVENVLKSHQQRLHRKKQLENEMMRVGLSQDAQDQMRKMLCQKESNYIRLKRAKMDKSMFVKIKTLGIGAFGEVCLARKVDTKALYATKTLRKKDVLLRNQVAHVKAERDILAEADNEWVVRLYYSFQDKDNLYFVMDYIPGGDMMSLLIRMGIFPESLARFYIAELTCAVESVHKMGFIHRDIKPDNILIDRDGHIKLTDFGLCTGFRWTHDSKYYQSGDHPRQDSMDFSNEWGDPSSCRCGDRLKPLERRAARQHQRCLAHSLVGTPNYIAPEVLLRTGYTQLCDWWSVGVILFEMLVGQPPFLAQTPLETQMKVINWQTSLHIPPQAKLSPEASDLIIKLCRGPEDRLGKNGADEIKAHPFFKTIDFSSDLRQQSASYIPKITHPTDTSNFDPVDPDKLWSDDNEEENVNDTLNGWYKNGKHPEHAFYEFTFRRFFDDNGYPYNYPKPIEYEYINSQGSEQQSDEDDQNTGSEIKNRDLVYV
The experiment can be described thus: Selectivity interaction (KinomeScan (DiscoverX)) EUB0001049a LATS1. The conditions noted are these: at 1 µM.

Experiment [9] concerns the target Serine/threonine-protein kinase 16 (Homo sapiens, UniProt O75716). The experiment can be described thus: Selectivity interaction (KinomeScan (DiscoverX)) EUB0001550a STK16. The conditions noted are these: at 1 µM.
Experiment [10] has as its target Insulin receptor (Homo sapiens, UniProt P06213). Put plainly: Selectivity interaction (Kinase screening (Nanosyn)) EUB0000604a INSR.
In experiment [11] the target is Ribosomal protein S6 kinase alpha-3 (Homo sapiens, UniProt P51812). Put plainly: Selectivity interaction (KinomeScan (DiscoverX)) EUB0000229b RPS6KA3. Conditions: at 10 µM.
The target of experiment [12] is Gastrin/cholecystokinin type B receptor (Homo sapiens, UniProt P32239). Put plainly: Selectivity interaction (Cholecystokinin B receptor binding assay, human recombinant ) EUB0000877a CCKBR.
Experiment [13] deals with Mitogen-activated protein kinase 10 (Homo sapiens, UniProt P53779). The experiment can be described thus: Selectivity interaction (ActivX KiNativ screen (ex vivo kinase selectivity in human PBMCs)) EUB0001619a MAPK10. The experiment is classed as cell-based. Conditions: PBMC, at 1 µM.

The source of these data is ChEMBL document CHEMBL5465560, “Selectivity Literature for EUbOPEN Chemogenomic Library” (2024).

As usually defined, the IC50 is the point on the concentration scale where inhibition reaches its midpoint.

Where only a bound is given, the exact number is not on record here.

Mitogen-activated protein kinase kinase kinase 9 (Homo sapiens), sequence (P80192 whole entry, looked up): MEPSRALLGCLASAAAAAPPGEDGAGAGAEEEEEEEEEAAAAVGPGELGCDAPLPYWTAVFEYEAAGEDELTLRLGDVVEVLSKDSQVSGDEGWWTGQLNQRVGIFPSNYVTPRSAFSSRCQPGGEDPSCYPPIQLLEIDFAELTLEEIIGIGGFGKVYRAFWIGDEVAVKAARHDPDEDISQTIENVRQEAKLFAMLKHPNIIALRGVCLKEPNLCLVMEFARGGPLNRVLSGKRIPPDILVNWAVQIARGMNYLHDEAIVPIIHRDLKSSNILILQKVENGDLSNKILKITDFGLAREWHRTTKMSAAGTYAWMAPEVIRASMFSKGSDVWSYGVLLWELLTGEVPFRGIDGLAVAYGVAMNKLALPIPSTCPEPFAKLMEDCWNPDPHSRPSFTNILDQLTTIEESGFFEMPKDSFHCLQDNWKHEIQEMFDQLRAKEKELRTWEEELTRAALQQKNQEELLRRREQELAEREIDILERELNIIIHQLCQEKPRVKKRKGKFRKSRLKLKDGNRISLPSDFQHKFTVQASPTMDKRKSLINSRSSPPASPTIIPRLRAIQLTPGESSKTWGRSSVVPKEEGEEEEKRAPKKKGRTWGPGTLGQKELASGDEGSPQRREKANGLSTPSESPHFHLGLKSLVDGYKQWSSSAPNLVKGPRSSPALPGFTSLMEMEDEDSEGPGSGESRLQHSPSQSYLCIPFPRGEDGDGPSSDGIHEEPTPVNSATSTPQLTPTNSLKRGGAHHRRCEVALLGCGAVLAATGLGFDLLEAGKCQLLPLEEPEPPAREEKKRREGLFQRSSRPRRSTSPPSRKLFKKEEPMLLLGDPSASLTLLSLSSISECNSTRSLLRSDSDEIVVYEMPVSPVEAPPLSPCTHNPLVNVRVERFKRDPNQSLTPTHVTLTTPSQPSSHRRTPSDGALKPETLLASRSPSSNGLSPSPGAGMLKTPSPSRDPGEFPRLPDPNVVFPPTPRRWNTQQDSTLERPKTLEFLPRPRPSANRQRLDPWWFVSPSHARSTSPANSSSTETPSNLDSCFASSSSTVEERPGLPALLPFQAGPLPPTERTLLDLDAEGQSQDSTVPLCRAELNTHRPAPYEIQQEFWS
Ribosomal protein S6 kinase alpha-3, sequence (P51812 whole entry): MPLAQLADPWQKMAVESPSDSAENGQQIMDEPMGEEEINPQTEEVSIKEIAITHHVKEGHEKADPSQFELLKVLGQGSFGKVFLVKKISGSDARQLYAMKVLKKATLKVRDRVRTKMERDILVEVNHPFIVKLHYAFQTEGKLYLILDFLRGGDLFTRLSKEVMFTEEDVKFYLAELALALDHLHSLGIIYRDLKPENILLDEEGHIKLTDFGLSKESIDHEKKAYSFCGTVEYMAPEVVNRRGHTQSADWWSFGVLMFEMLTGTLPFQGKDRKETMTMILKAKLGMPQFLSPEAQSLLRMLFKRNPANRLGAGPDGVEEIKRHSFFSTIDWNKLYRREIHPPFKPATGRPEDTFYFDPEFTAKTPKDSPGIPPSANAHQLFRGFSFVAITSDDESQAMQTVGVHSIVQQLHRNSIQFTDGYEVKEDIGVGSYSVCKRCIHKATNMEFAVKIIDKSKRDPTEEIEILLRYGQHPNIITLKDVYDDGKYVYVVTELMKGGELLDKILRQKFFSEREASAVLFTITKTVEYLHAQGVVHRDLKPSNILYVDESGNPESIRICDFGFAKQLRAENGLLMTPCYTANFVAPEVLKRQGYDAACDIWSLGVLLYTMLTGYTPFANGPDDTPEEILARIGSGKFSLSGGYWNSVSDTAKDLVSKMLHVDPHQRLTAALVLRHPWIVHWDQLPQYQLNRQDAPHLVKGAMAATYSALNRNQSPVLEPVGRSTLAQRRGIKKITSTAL
Mitogen-activated protein kinase kinase kinase kinase 5 (Homo sapiens), sequence (Q9Y4K4 whole entry, looked up): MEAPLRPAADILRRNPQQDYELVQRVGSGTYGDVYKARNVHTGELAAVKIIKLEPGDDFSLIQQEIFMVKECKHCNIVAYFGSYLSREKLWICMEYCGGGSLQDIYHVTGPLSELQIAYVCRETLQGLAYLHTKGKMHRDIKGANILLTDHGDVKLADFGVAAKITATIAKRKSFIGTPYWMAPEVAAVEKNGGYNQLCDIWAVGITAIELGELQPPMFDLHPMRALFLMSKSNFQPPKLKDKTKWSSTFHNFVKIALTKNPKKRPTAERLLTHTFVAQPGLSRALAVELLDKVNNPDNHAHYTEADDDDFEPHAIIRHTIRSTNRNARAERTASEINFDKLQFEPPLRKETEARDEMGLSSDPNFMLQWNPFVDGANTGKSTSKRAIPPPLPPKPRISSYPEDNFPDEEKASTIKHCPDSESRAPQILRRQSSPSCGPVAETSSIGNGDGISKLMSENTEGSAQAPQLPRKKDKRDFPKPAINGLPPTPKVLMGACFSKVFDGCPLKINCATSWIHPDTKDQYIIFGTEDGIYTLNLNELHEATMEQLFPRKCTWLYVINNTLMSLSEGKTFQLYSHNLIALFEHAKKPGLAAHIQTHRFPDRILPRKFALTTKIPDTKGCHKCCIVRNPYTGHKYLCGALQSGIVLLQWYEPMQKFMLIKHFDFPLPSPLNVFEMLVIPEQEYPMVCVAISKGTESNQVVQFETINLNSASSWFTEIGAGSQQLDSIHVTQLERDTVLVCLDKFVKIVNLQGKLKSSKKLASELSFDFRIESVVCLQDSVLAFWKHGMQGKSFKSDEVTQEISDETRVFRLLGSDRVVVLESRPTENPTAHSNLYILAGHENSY
Histamine H1 receptor, sequence (P35367 whole entry): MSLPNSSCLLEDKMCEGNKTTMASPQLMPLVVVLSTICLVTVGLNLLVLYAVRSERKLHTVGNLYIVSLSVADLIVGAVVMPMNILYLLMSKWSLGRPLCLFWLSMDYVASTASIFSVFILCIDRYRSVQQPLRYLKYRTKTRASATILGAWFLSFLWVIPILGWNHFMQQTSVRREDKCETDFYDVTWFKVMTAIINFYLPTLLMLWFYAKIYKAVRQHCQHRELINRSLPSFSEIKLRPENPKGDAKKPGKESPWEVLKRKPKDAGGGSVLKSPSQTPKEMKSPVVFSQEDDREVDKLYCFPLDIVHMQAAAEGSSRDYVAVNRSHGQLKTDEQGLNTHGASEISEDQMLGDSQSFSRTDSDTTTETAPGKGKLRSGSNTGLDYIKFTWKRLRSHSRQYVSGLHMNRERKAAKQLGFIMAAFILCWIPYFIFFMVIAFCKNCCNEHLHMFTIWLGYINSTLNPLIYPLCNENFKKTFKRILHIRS
Serine/threonine-protein kinase 16, sequence (O75716 whole entry): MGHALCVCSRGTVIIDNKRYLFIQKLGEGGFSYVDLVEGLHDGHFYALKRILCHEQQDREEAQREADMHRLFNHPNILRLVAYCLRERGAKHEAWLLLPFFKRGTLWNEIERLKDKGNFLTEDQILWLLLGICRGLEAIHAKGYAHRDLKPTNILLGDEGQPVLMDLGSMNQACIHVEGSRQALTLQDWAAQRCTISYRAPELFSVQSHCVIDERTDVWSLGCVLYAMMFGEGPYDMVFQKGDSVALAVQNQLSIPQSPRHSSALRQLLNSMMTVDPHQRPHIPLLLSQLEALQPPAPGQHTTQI
Insulin receptor, sequence (P06213 28-758 limits assumed): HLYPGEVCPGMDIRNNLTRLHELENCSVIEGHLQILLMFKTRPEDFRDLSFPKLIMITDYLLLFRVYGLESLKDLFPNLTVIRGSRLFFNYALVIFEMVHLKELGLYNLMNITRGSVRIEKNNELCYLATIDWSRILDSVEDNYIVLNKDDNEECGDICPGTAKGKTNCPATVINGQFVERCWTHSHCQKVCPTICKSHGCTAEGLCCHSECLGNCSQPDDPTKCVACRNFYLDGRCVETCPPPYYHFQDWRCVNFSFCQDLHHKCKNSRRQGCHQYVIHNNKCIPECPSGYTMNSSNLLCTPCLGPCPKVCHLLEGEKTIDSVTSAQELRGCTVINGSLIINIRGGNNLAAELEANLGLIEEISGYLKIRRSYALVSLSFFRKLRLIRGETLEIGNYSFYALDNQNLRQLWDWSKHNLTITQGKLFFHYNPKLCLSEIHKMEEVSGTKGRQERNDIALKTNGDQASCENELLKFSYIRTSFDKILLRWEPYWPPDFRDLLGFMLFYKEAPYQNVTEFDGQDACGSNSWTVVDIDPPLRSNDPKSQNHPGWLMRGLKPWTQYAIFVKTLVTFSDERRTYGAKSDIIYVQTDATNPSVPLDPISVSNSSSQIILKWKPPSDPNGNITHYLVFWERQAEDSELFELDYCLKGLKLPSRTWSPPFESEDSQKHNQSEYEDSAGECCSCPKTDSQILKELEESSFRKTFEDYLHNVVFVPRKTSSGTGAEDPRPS
Insulin receptor, sequence (P06213 763-1382 limits assumed): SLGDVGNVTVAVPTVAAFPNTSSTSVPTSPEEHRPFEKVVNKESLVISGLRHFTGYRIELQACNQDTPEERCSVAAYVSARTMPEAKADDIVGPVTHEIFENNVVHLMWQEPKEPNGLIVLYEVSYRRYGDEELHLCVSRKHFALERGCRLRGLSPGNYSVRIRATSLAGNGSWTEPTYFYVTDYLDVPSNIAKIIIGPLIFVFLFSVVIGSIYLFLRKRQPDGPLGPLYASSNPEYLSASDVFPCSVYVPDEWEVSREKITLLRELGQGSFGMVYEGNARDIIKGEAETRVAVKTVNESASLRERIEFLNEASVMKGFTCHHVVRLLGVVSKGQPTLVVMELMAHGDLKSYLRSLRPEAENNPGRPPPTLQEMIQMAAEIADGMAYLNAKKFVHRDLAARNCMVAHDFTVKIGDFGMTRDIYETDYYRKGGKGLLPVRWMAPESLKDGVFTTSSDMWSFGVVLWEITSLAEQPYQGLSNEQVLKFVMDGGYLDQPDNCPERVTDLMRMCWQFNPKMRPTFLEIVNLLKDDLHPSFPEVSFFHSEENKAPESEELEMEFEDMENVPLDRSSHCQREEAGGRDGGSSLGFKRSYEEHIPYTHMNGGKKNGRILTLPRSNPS

The compound `Cc1cc([C@@H](C)Nc2ccccc2C(=O)O)c2nc(N3CCOCC3)cc(=O)n2c1` [AZD-6482] gave an IC50 in experiment [1] of more than 999 µM. Besides, in experiment [2], the % of control is 90%.

With `Nc1cnc(N2CCc3cc(S(=O)(=O)Nc4c(F)cc(Cl)cc4F)cc(N4CCCC4=O)c32)nc1` [TP-020n], the % of inhibition in experiment [3] stood at 8.19%. The % of control stood at 73% in experiment [4], 100% in experiment [5] and 100% in experiment [6].

As to `COc1cc(Nc2nc(C)cc(-c3cnn4nc(OC)ccc34)n2)cc(C(F)(F)F)c1`, the % of control in [7] worked out at 75%; in experiment [8], 100%.

As for `CN(C)CC#Cc1ccc2[nH]c3c(c2c1)-c1nc(N)ncc1CCC3`, in experiment [9], the % of control amounted to 14%.

`Cc1cnc(Nc2ccc(F)cc2Cl)nc1-c1c[nH]c(C(=O)N[C@H](CO)c2cccc(Cl)c2)c1` had a % of inhibition in experiment [10] of 4%.

`COc1cc(N(C)c2ccnc3ccc(C(F)(F)F)cc23)cc(OC)c1OC` returned a % binding in experiment [11] of 95%.

As for `CCC(=O)N1CC[C@H](Nc2ncnc3c2CN(c2cnc(OC)c(C(F)(F)F)c2)CC3)C1` [LENIOLISIB], the IC50 in [12] was more than 30 µM.

On to `N#Cc1cccc(-c2c[nH]c3ncnc(N4CCOCC4)c23)c1`, for which the % of inhibition in [13] was determined as 5%.
